For experiment [1], the target named is T1, Eg5 motor domain construct Eg5-367H (Homo sapiens, UniProt P52732).
T1 construct: the Eg5 motor domain construct Eg5-367H; His tag (read from the 'H' in the construct name; not spelled out for this construct)
T1 sequence (P52732 18-359 limits assumed): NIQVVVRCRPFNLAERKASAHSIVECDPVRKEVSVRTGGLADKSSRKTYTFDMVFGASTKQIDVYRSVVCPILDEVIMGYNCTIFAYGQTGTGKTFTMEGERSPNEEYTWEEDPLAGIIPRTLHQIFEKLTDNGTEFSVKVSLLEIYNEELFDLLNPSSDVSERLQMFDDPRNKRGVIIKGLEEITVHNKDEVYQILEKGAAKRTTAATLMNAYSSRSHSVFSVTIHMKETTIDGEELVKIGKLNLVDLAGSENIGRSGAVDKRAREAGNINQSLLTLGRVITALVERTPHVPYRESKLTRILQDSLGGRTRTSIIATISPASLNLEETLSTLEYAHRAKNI
Kind of experiment: Activity of Eg5 inhibitors in pure protein assay (microtubule-stimulated ATP hydrolysis, malachite green phosphate detection). The note with it: microtubule-stimulated ATP hydrolysis by Eg5-367H, 25 degrees, 2 hours. Format: biochemical. As for the experimental part: We utilized a colorimetric phosphate detection assay (Funk, 2004) to measure microtubule-stimulated ATP hydrolysis by the Eg5 motor domain construct Eg5-367H (Maliga, 2002) as a function of drug concentration. Stocks solutions of each compound were prepared by serial dilution into DMSO and 0.1 microliters was added by pin transfer into KC25 buffer (20 mM PIPES-KOH, pH 6.9, 25 mM KCl, 2 mM MgC12) supplemented with 1 mM ATP-KOH, pH 6.9. KC25 supplemented with 10 micromolar taxol, 50 nanomolar Eg5-367H, and 1 micromolar taxol-polymerized microtubules was then added and the reaction incubated at 25 degrees for 2 hours. Malachite green assay solution (7% (w/v) perchloric acid, 0.0075% (w/v) malachite green oxalate, 0.2% (w/v) sodium molybdate dihydrate) was added to each reaction and the optical absorbance at 640 nm (640) was measured after a 30 minute incubation using a Wallac II automated plate reader. A640 as a function of! drug concentration (C) was fit to the equation A640=A0+B/(1+C/IC50) using Kaleidegraph 3.0, A0 is the basal A640, B is the maximum increase in A640, and IC50 is the drug concentration that inhibits half the Eg5 activity.

The test system of another experiment is Hela cells. Nature of the experiment: cells. To be noted: Homo sapiens, 20 h. As for the experimental part:
Hela cells were grown (Maliga, et. al. 2001) to 20% confluence in 384-well, clear-bottomed, black-walled NUNC plates and serial dilutions of prospective Eg5 inhibitors were added by pin transfer, as above [0277], incubated at 37° C. for 20 hours, fixed with TBS-0.1% Triton X100 supplemented with 4% formaldehyde, and stained stained for DNA, phosphorylated Ser10-Histone 3, and alpha-tubulin. Each drug concentration was inspected for the characteristic monoaster phenotype: condensed phospho-S10 positive chromosomes arranged in a rosette pattern around a circularly symmetric array of microtubules, and the absence of bi-polar mitotic spindles.

Each structure is given as a SMILES string.

From patent US20100152206A1, “Bicyclic Dihydropyrimidines and Uses Thereof” (priority 2005, published 2010) come the findings set out here.

As for `O=C1NCCC2=C1C(c1cccc(O)c1)NC(=S)N2` (stereo not shown) [Entry 1], the figures for the IC50 (in experiment [1]; in the experiment on Hela cells) were 1.5 µM and 50 µM, respectively.

Regarding `CCOC(=O)C1=C(CCN)NC(=S)NC1c1cccc(O)c1` (stereo not shown) [Entry 2], the IC50 in experiment [1] was more than 30 µM; in the experiment with Hela cells it was more than 300 µM.

On to `CCOC(=O)C1=C(CCNC(=O)OC(C)(C)C)NC(=S)NC1c1cccc(O)c1` (stereo not shown) [Entry 3], for which the concentration for half-maximal inhibition (IC50) was more than 30 µM in experiment [1] and more than 300 µM in the experiment on Hela cells.

Consider `CCOC(=O)C1=C(CCO[Si](C(C)C)(C(C)C)C(C)C)NC(=S)NC1c1cccc(O)c1` (stereo not shown) [Entry 4], for which the IC50 is more than 30 µM in experiment [1] and more than 300 µM in the experiment with Hela cells.

Turning to `O=C1OCCC2=C1C(c1cccc(O)c1)NC(=S)N2` (stereo not shown) [Entry 5], the figures for the IC50 (in experiment [1]; with Hela cells) were 0.5 µM and 30 µM, respectively.

For the compound `CCOC(=O)C1=C(CN)NC(=S)NC1c1cccc(O)c1` (stereo not shown) [Entry 6], the IC50 in experiment [1] was determined as 12 µM; in the experiment with Hela cells, 200 µM.

For `CCOC(=O)C1=C(CO)NC(=S)NC1c1cccc(O)c1` (stereo not shown) [Entry 7], the IC50 in experiment [1] came to 30 µM; in the experiment with Hela cells, 300 µM.

Consider `O=C1OCC2=C1C(c1cccc(O)c1)NC(=S)N2` (stereo not shown) [Entry 8], for which the values for the IC50 (in experiment [1]; with Hela cells) were 20 µM and 300 µM, respectively.

For the compound `O=C1NCC2=C1C(c1cccc(O)c1)NC(=S)N2` (stereo not shown) [Entry 9], the IC50 was 12 µM in experiment [1] and more than 300 µM with Hela cells.

With `CCOC(=O)C1=C(C)NC(=S)NC1c1cccc(N)c1` (stereo not shown) [Entry 10], the IC50 in experiment [1] was more than 30 µM; in the experiment with Hela cells, more than 300 µM.

In the case of `CCOC(=O)C1=C(C)NC(=S)NC1c1cccc(O)c1` (stereo not shown) [Monastrol, reference compound], the IC50 in experiment [1] came to 12 µM; with Hela cells, 300 µM.
